{"source": "patent US6740677B2", "about": "“Methods of treating benzodiazepine site (BZD-S) associated syndromes using 2′ hydroxyflavonoids” (priority 2002, dated 2004)", "key": {"[1]": {"biological_target": "benzodiazepine binding site", "experiment": "Inhibition of [3H]-flunitrazepam by 2′ flavonoid derivatives (Example 7)"}, "[2]": {"biological_target": "BZD-S", "experiment": "Radio-receptor binding assay, [3H]flunitrazepam, forebrain crude synaptosomal fraction (Example 3)", "parameters": "species or system Sprague-Dawley rats", "conditions": "1 nM [3H]flunitrazepam, rat forebrain; read-out: Inhibition of 3H-Flunitrazepam Ki"}, "[3]": {"biological_target": "benzodiazepine site (BZD-S) of the GABAA receptor"}, "[4]": {"tested_on": "benzodiazepine site on GABAA receptor", "experiment": "GABA shift experiment, [3H]-Ro15-1788 competition with/without 10 μM GABA", "format": "binding, rat"}, "[5]": {"tested_on": "mice", "experiment": "Elevated plus-maze test", "format": "in vivo, Male ICR mice"}, "[6]": {"tested_on": "benzodiazepine site (BZD-S) of the GABAA receptor", "experiment": "Radioligand receptor binding, displacement of [3H]-flunitrazepam (Example 1)"}, "[7]": {"tested_on": "mice", "experiment": "Hole-board test", "format": "in vivo, Male ICR mice", "parameters": "Time spent head-dipping: unit not given here"}, "[8]": {"tested_on": "mice", "experiment": "Horizontal wire test", "format": "in vivo, Male ICR mice"}, "[9]": {"tested_on": "benzodiazepine site", "conditions": "10^-4 M GABA, rat cerebral cortex membranes; cited from earlier work"}, "[10]": {"tested_on": "benzodiazepine site", "conditions": "10^-5 M muscimol, rat cerebellar membranes; cited from earlier work"}, "[11]": {"conditions": "1 mg/kg oral, time cell empty, 5-min test"}, "[12]": {"conditions": "5 mg/kg oral, time cell empty, 5-min test"}, "[13]": {"conditions": "1 mg/kg oral, time cell empty (1 hour), 5-min test"}, "[14]": {"conditions": "5 mg/kg oral, time cell empty (1 hour), 5-min test"}}, "data": [{"molecule": "COc1ccc2oc(-c3ccccc3N)cc(=O)c2c1", "note": "[2′-amino, 6-methoxyflavone]", "values": [{"measurement": "IC50", "setting": "[1]", "value": 2000, "unit": "nM"}]}, {"molecule": "COc1c(O)c(OC)c2oc(-c3ccccc3O)cc(=O)c2c1O", "note": "[Compound 1, 5,7,2′-trihydroxy-6,8-dimethoxyflavone]", "values": [{"measurement": "Ki", "setting": "[2]", "value": 1.1, "unit": "nM"}, {"measurement": "Ki", "setting": "[3]", "value": 1.1, "unit": "nM"}, {"measurement": "GABA ratio", "setting": "[4]; IC50 without GABA / IC50 with 10 μM GABA, 1 nM [3H]-Ro15-1788", "value": 1.20}, {"measurement": "% of entries into open arms", "setting": "[5]; 1 mg/kg oral, 20 min", "value": "18.39 ± 3.14", "unit": "%"}, {"measurement": "% of time spent in open arms", "setting": "[5]; 1 mg/kg oral, 20 min", "value": "14.28 ± 2.36", "unit": "%"}, {"measurement": "% of entries into open arms", "setting": "[5]; 1 mg/kg oral, 60 min", "value": "18.51 ± 3.34", "unit": "%"}, {"measurement": "% of time spent in open arms", "setting": "[5]; 1 mg/kg oral, 60 min", "value": "15.80 ± 3.29", "unit": "%"}, {"measurement": "% of entries into open arms", "setting": "[5]; 2 mg/kg oral, 20 min", "value": "18.30 ± 2.78", "unit": "%"}, {"measurement": "% of time spent in open arms", "setting": "[5]; 2 mg/kg oral, 20 min", "value": "15.74 ± 3.00", "unit": "%"}, {"measurement": "% of entries into open arms", "setting": "[5]; 2 mg/kg oral, 60 min", "value": "16.91 ± 2.49", "unit": "%"}, {"measurement": "% of time spent in open arms", "setting": "[5]; 2 mg/kg oral, 60 min", "value": "16.84 ± 1.99", "unit": "%"}, {"measurement": "anxiolysis compared to either dosage of diazepam", "setting": "[5]; 4.0 mg/kg", "value": "more anxiolysis"}, {"measurement": "% of entries into open arms", "setting": "[5]; 4 mg/kg oral, 20 min", "value": "32.28 ± 2.91", "unit": "%"}, {"measurement": "% of time spent in open arms", "setting": "[5]; 4 mg/kg oral, 20 min", "value": "33.55 ± 2.09", "unit": "%"}, {"measurement": "% of entries into open arms", "setting": "[5]; 4 mg/kg oral, 60 min", "value": "19.90 ± 1.63", "unit": "%"}, {"measurement": "% of time spent in open arms", "setting": "[5]; 4 mg/kg oral, 60 min", "value": "15.69 ± 2.09", "unit": "%"}, {"measurement": "% of entries into open arms", "setting": "[5]; 8 mg/kg oral, 20 min", "value": "28.90 ± 2.23", "unit": "%"}, {"measurement": "% of time spent in open arms", "setting": "[5]; 8 mg/kg oral, 20 min", "value": "25.62 ± 1.73", "unit": "%"}, {"measurement": "% of entries into open arms", "setting": "[5]; 8 mg/kg oral, 60 min", "value": "18.67 ± 2.24", "unit": "%"}, {"measurement": "% of time spent in open arms", "setting": "[5]; 8 mg/kg oral, 60 min", "value": "16.76 ± 2.19", "unit": "%"}, {"measurement": "time spent in open arms and entries made into open arms vs control", "setting": "[5]; 4.0 and 8.0 mg/kg, twenty minutes after dosage", "value": "significant increase"}, {"measurement": "fold difference in binding affinity", "setting": "[6]; Compound 1 vs Compound 6 (K1)", "value": 260, "unit": "fold"}, {"measurement": "IC50", "setting": "[6]; read-out: Inhibition of 3H-Flunitrazepam IC50, 1 nM [3H]-flunitrazepam, rat whole brain synaptosomal membrane", "value": 1.5, "unit": "nM"}, {"measurement": "Number of head dips", "setting": "[7]; 1 mg/kg oral, 20 min", "value": "13.56 ± 1.81"}, {"measurement": "Number of rearings", "setting": "[7]; 1 mg/kg oral, 20 min", "value": "24.19 ± 3.53"}, {"measurement": "Time spent head-dipping", "setting": "[7]; 1 mg/kg oral, 20 min", "value": "15.38 ± 1.59"}, {"measurement": "Number of head dips", "setting": "[7]; 1 mg/kg oral, 60 min", "value": "15.75 ± 2.53"}, {"measurement": "Number of rearings", "setting": "[7]; 1 mg/kg oral, 60 min", "value": "23.94 ± 2.34"}, {"measurement": "Time spent head-dipping", "setting": "[7]; 1 mg/kg oral, 60 min", "value": "16.75 ± 3.78"}, {"measurement": "Number of head dips", "setting": "[7]; 2 mg/kg oral, 20 min", "value": "13.13 ± 1.96"}, {"measurement": "Number of rearings", "setting": "[7]; 2 mg/kg oral, 20 min", "value": "22.06 ± 3.17"}, {"measurement": "Time spent head-dipping", "setting": "[7]; 2 mg/kg oral, 20 min", "value": "14.56 ± 2.04"}, {"measurement": "Number of head dips", "setting": "[7]; 2 mg/kg oral, 60 min", "value": "14.50 ± 2.73"}, {"measurement": "Number of rearings", "setting": "[7]; 2 mg/kg oral, 60 min", "value": "22.13 ± 2.46"}, {"measurement": "Time spent head-dipping", "setting": "[7]; 2 mg/kg oral, 60 min", "value": "15.13 ± 2.20"}, {"measurement": "number of head-dips, time spent head-dipping and number of rearings", "setting": "[7]; 4 mg/kg acute, twenty minutes after dosage", "value": "significant increase"}, {"measurement": "Number of head dips", "setting": "[7]; 4 mg/kg oral, 20 min", "value": "20.25 ± 1.42"}, {"measurement": "Number of rearings", "setting": "[7]; 4 mg/kg oral, 20 min", "value": "29.54 ± 2.09"}, {"measurement": "Time spent head-dipping", "setting": "[7]; 4 mg/kg oral, 20 min", "value": "23.35 ± 1.28"}, {"measurement": "Number of head dips", "setting": "[7]; 4 mg/kg oral, 60 min", "value": "16.95 ± 1.33"}, {"measurement": "Number of rearings", "setting": "[7]; 4 mg/kg oral, 60 min", "value": "27.56 ± 2.79"}, {"measurement": "Time spent head-dipping", "setting": "[7]; 4 mg/kg oral, 60 min", "value": "17.56 ± 1.20"}, {"measurement": "Number of head dips", "setting": "[7]; 8 mg/kg oral, 20 min", "value": "18.46 ± 3.65"}, {"measurement": "Number of rearings", "setting": "[7]; 8 mg/kg oral, 20 min", "value": "25.26 ± 2.74"}, {"measurement": "Time spent head-dipping", "setting": "[7]; 8 mg/kg oral, 20 min", "value": "19.55 ± 4.23"}, {"measurement": "Number of head dips", "setting": "[7]; 8 mg/kg oral, 60 min", "value": "15.72 ± 1.86"}, {"measurement": "Number of rearings", "setting": "[7]; 8 mg/kg oral, 60 min", "value": "23.75 ± 3.18"}, {"measurement": "Time spent head-dipping", "setting": "[7]; 8 mg/kg oral, 60 min", "value": "15.06 ± 1.98"}, {"measurement": "sedative effects (decrease in head-dips, time head-dipping, rearings)", "setting": "[7]; mouse, in vivo", "value": "lack of sedative effects"}, {"measurement": "ability to grasp the wire", "setting": "[8]; K36 dosage regimen 1.0-8.0 mg/kg", "value": "remained unchanged"}]}, {"molecule": "CN1C(=O)CN=C(c2ccccc2)c2cc(Cl)ccc21", "note": "[Diazepam, reference compound]", "values": [{"measurement": "GABA ratio (IC50 ratio without GABA/with GABA), column A", "setting": "[9]", "value": 2.9}, {"measurement": "Ki", "setting": "[2]", "value": 9.5, "unit": "nM"}, {"measurement": "GABA ratio (IC50 ratio without GABA/with GABA), column B", "setting": "[10]", "value": 2.3}, {"measurement": "GABA ratio (IC50 ratio without GABA/with GABA), column C", "setting": "[4]; 10^-5 M GABA, rat cerebral cortex membranes", "value": 2.0}, {"measurement": "% of entries into open arms", "setting": "[5]; [11]", "value": "26.48 ± 2.83", "unit": "%"}, {"measurement": "% of time spent in open arms", "setting": "[5]; [11]", "value": "28.71 ± 2.27", "unit": "%"}, {"measurement": "% of entries into open arms", "setting": "[5]; [12]", "value": "29.85 ± 1.29", "unit": "%"}, {"measurement": "% of time spent in open arms", "setting": "[5]; [12]", "value": "32.24 ± 1.56", "unit": "%"}, {"measurement": "time spent in open arms and entries made into open arms vs control", "setting": "[5]; 1.0 and 5.0 mg/kg", "value": "dose dependent increase"}, {"measurement": "Number of head dips", "setting": "[7]; [13]", "value": "19.12 ± 2.92"}, {"measurement": "Number of rearings", "setting": "[7]; [13]", "value": "25.13 ± 2.85"}, {"measurement": "Time spent head-dipping", "setting": "[7]; [13]", "value": "22.75 ± 2.59"}, {"measurement": "Number of head dips", "setting": "[7]; [14]", "value": "17.25 ± 1.89"}, {"measurement": "Number of rearings", "setting": "[7]; [14]", "value": "32.16 ± 3.15"}, {"measurement": "Time spent head-dipping", "setting": "[7]; [14]", "value": "19.50 ± 2.33"}, {"measurement": "sedative effects (decrease in head-dips, time head-dipping, rearings)", "setting": "[7]; at the dosage regimen", "value": "lack of sedative effects"}, {"measurement": "ability to grasp the wire compared to control", "setting": "[8]; 5.0 mg/kg", "value": "significant impairment"}]}]}
